{
  "source": "patent US20240158447A1",
  "about": "“PEPTIDES FOR USE IN THE TREATMENT OR PREVENTION OF MYOCARDIAL DAMAGE” (THE UNIVERSITY OF WESTERN AUSTRALIA, priority 2020, published 2024)",
  "key": {"cTnI-G203S mice": {"test_system": "cTnI-G203S mice", "test": "Echocardiography of pre-cardiomyopathic cTnI-G203S mice (Example 15)", "type": "in vivo, mouse", "conditions": "5 μM, 3×/wk/5 wk; versus AID(S)-TAT; FIG. 15", "source_text": "Twenty to thirty week-old male mice expressing the human cTnI gene encoding the human disease-causing cTnI-G203S were generated and used for the in vivo studies. By way of background, the mice develop hallmark features of HCM between 20 and 25 weeks (Viola H, Johnstone V, Cserne Szappanos H, Richman T, Tsoutsman T, Filipovska A, et al. The L-type Ca(2+) channel facilitates abnormal metabolic activity in the cTnI-G2035 mouse model of hypertrophic cardiomyopathy. J Physiol. 2016; 594(14):4051-70; Viola H M, Shah A A, Johnstone V P A, Cserne Szappanos H, Hodson M P, Hool L C. Characterization and validation of a preventative therapy for hypertrophic cardiomyopathy in a murine model of the disease. Proc Nati Aced Sci U S A. 2020; 117(37):23113-24; Tsoutsman T, Chung J, Doolan A, Nguyen L, Williams IA, Tu E, et al. Molecular insights from a novel cardiac troponin I mouse model of familial hypertrophic cardiomyopathy. J Mol Cell Cardiol. 2006; 41(4):623-32). Age-matched male mice expressing the normal human troponin I gene were used as controls and indicated as wild-type (wt). For in vivo studies, 20-week old cTnI-G203S mice were treated with 10 μM AID(S)-TAT (2 mg/kg) or 5 μM AID-TAT mutant peptides via intraperitoneal injection, 3 times per week for a total duration of 5 weeks. The peptide was dissolved in phosphate buffered saline solution (PBS), and the total amount of the 10 μM AID-TAT mutant peptides administered over 5 weeks was 0.9 mg. The total amount of the 5 μM AID-TAT mutant peptides administered over 5 weeks was 0.45 mg Male mice were utilized to eliminate potential differences in responses due to gender. The number of mice used is indicated by N.\nEchocardiographic studies to measure left ventricular function were performed on mice under light methoxyflurane anaesthesia with the use of an i13L probe on a Vivid™ 7 IQ ultrasound system (GE Healthcare, Little Chalfont, UK) as previously described (Viola H, Johnstone V, Cserne Szappanos H, Richman T, Tsoutsman T, Filipovska A, et al. The L-type Ca(2+) channel facilitates abnormal metabolic activity in the cTnI-G2035 mouse model of hypertrophic cardiomyopathy. J Physiol. 2016; 594(14):4051-70; Viola H M, Shah A A, Johnstone V P A, Cserne Szappanos H, Hodson M P, Hool L C. Characterization and validation of a preventative therapy for hypertrophic cardiomyopathy in a murine model of the disease. Proc Natl Acad Sci U S A. 2020; 117(37):23113-24; Viola H M, Johnstone V P A, Cserne Szappanos H, Richman T R, Tsoutsman T, Filipovska A, et al. The Role of the L-Type Ca(2+) Channel in Altered Metabolic Activity in a Murine Model of Hypertrophic Cardiomyopathy. JACC Basic Transl Sci. 2016; 1(1-2):61-72). Each N represents the average of quantitative measurements from wt or cTnI-G203S mice for each treatment group."}, "[1]": {"target": "T1, L-type Ca^2+ channel β2 subunit (Homo sapiens, UniProt Q08289)", "T1 construct": "from tissue; host or cells: whole heart (cardiac) lysate", "test": "Binding competition assay of variant peptides for the β2 subunit (AID-coated beads, heart lysate, SDS-PAGE)", "conditions": "competition with bead-bound AID peptide, whole heart lysate, immunoblot densitometry; FIG. 2", "experimental": "The affinity of each of the variant peptides to the β2 subunit was investigated through binding competition assays.\nPureProteome™ NHS FlexiBind Magnetic Beads (Cat. #LSKMAGN04, Merck) were used following manufacturer recommendations. Aminohexanoic acid linked AID peptide was bound to the NHS flexibind magnetic beads at a concentration of more than 2 mg/mL to obtain saturation of the beads with peptide. Beads were first primed with an equilibration buffer (1 mM HCL) to prepare them for binding. The Ahx-AID peptide was dissolved in wash/coupling buffer (PBS, pH 7.4) and added to the beads. The beads-AID peptide mixture was left to mix uniformly on a multiplate shaker at a speed of 300 rpm at room temperature for 2 hours. To reduce non-specific binding the beads were incubated in Quench Buffer (100 mM Tris-HCl, 150 mM NaCl, pH 8.0) at room temperature for 1 hour.\nThe AID-peptide bound beads were split into 5 aliquots for the 5 samples prepared in Table 5. The whole heart lysate added to each of the peptide-bound beads to allow competitive binding for 2 hours at room temperature.\nUpon completion, the conjugate was washed in coupling buffer, to remove unbound fraction. SDS sample buffer was added to the beads, with the tubes then heated for 5 minutes at 95° C. The eluted sample stored at −20° C. to be run through sodium dodecyl sulfate-polyacrymalide gel electrophoresis (SDS-PAGE) to determine the binding affinity of each of the variants.\nThe use of streptavidin dynabeads and biotinylated peptide was developed to improve the binding affinity assays. The peptide was initially biotinylated using EZ-link amine-PEG11-biotin (Spacer arm: 53.2 Å, Thermofisher Scientific, Cat. #26136) which was dissolved in 0.1M MES buffer ((2-N-morpholino)-ethanesulfonic acid) at a concentration of 1 mM. Just prior to the reaction, 0.1M EDC (N-(3-Dimethylaminopropyl)-N′-ethylcarbodiimide hydrochloride) was dissolved in MES buffer. In order to achieve complete biotinylation of the AID peptide, a 50× molar excess of biotin to peptide was required, with the total volumes of each component required shown in Table 6.\nEach 78 μL aliquot of the biotinylated peptide shown in […] was enough for 6 reactions, covering the range of concentrations in which the heart lysate was again prepared with varying concentrations of the variant AID peptides according to Table 7.\nThe 78 μL aliquot of biotinylated AID-peptide was mixed with streptavidin dynabeads (1 mg Dynabeads per every 200 pmol biotinylated peptide) for half an hour at room temperature. The heart lysate ([…]) was incubated with the variant peptides at room temperature for 2 hours. After removing all unbound peptide from the beads, they were mixed with the pre-bound heart lysate for 2 hours at room temperature. The unbound fraction was removed. […]"}, "Cavβ2 subunit": {"target": "T2, Cavβ2 subunit (Homo sapiens, UniProt Q08289)", "T2 construct": "incubated with 100 μg of Cavβ2 subunit from cardiac homogenate and cytoplasmic protein preparation; from tissue; host or cells: cardiac homogenate and cytoplasmic protein preparation", "test": "Competitive binding affinity assay, biotinylated AID affinity beads vs Cavβ2 subunit (Example 9)", "conditions": "dose-response 0, 10 nM to 100 μM peptide; FIG. 9", "experimental": "In this experiment, a binding affinity assay was utilized to examine the binding efficacy of AID peptide variants presented in Table 8, compared to the original AID peptide.\nBiotinylation of original AID (no TAT): For each reaction (a dose-response curve consisted of 6 reactions), 0.02 nM […] was incubated in biotinylation solution (0.1M MES buffer containing 1 nM amine-PEG11-biotin and 0.2 nM EDC) for 2 hrs at room temperature with agitation (400 rpm). Affinity beads (Dynabeads M-280 Streptavidin, ThermoFisher Scientific) were then incubated with biotinylated AID peptide for 30 min at room temperature with agitation (400 rpm). Afterwards, biotinylated AID-coated affinity beads were washed, initially in 0.1% BSA in PBS and then three times in PBS for 3 min.\nBiochem J. 2000; 348 Pt 3:657-65; Haase H, Striessnig J, Holtzhauer M, Vetter R, Glossmann H. A rapid procedure for the purification of cardiac 1,4-dihydropyridine receptors from porcine heart. Eur J Pharmacol. 1991; 207(1):51-9).\nCompetitive binding of AID-affinity beads and Cavβ2 subunit: Cavβ2-AID mutant peptide dilutions were then incubated with biotinylated AID-coated affinity beads for 2 hrs at room temperature with gentle agitation (400 rpm). Samples were placed on a magnetic stand to allow affinity beads to migrate to the magnet. Supernatant was removed and treated with 1× sample buffer (62.5 mM Tris-HCl, pH 6.8, 2% SDS, 10% glycerol, 100 mM DTT, 0.002% Bromophenol Blue) for 5 min at 95° C. Resulting protein was analysed by immunoblot."}, "[2]": {"test_system": "myocytes isolated from cTnI-G203S mutant mouse hearts", "test": "Mitochondrial flavoprotein oxidation after BayK(−), myocytes from HCM hearts (Example 6)", "type": "cell-based", "conditions": "FIG. 5", "experimental": "FIG. 5 presents the effect of mutant peptides on flavoprotein oxidation, a measure of metabolic activity and oxygen consumption in myocytes isolated from cTnI-G203S mutant mouse hearts that are hypertrophic.\nAll in vitro studies were performed in freshly isolated myocytes at 37° C. […] Following a 20 min incubation with 0.5-1 μM AID(S)-TAT, AID-TAT, peptide 6 or peptide 7, fluorescent signal of individual myocytes was quantified using Metamorph 6.3 to measure signal intensity of manually traced cell regions. An equivalent region not containing cells was used for background and was subtracted.\nAutofluorescence was used to measure flavoprotein oxidation in cardiac myocytes based on previously described methods (480 nm ex, 535 nm em). Fluorescent images were taken at 1 min intervals with 1 s exposure before and after exposure to L-type Ca2+ channel agonist BayK(−). Fluorescence was reported as a percentage from the baseline pre-treatment average."}, "cTnI.2 wt myocytes": {"test_system": "cTnI.2 wt myocytes", "test": "Flavoprotein oxidation response to BayK(−), wt myocytes (Example 10)", "type": "cell-based, mouse", "conditions": "0.5 μM peptide 20 min, 10 μM BayK(−), FIG. 10B", "experimental": "In this experiment wt myocytes were pre-exposed to 0.1, 0.5 or 1 μM for 20 min and assessed changes in flavoprotein oxidation and ψm.\nMeasurement of mitochondrial flavoprotein oxidation: Flavoprotein autofluorescence was used to measure flavoprotein oxidation based on previously described methods (Yaniv Y, Juhaszova M, Lyashkov A E, Spurgeon H A, Sollott S J, Lakatta E G. Ca2+-regulated-cAMP/PKA signaling in cardiac pacemaker cells links ATP supply to demand. J Mol Cell Cardiol. 2011; 51(5):740-8). […] Fluorescent images were acquired at 1 min intervals with 200 ms exposure. Metamorph 6.3 (Version 7.10.3) was used to quantify the signal by manually tracing myocytes. An equivalent region not containing cells was used as background and was subtracted. Fluorescence values recorded over 5 min before and 5 min after addition of drugs were averaged and alterations in fluorescent ratios reported as the percentage increase from the basal average. FCCP (50 μM) and NaCN (40 mM) was added at the end of each experiment to achieve a respective maximal and minimal fluorescence value indicative of maximal and minimal flavoprotein oxidation.\nThe ICA-L agonist BayK(−) was used to activate the channel and assess mitochondrial function. […] FIG. 10 presents the mean+/−SEM of flavoprotein fluorescence from cTnI.2 wt and cTnI-G2035 mutant myocytes before and after exposure to 10 μM BayK(−) in the presence of 1 μM AID(S)-TAT, and increasing concentrations of variant peptides as indicated. N=no. of animals, n=no. of cardiomyocytes. P values shown compared with AID(S)-TAT as determined by the Kruskal-Wallis test."}},
  "data": [
    {"substance": "AIDP16-TAT: QQREEDLKGYLDWITQAE with TAT sequence", "values": [
      {"measurement": "IVSd, intraventricular septum in diastole", "setting": "cTnI-G203S mice", "result": "restored IVSd and IVSs only"},
      {"measurement": "IVSs, intraventricular septum in systole", "setting": "cTnI-G203S mice", "result": "restored IVSd and IVSs only"}
    ]},
    {"substance": "QQEEEDEKGYLDWITQAE (Variant P15)", "values": [
      {"measurement": "binding affinity (K0.5) for the target β2 subunit versus the original AID peptide", "setting": "[1]", "result": "greater binding affinity (lower K0.5)"},
      {"measurement": "K0.5 values compared to AID peptide", "setting": "Cavβ2 subunit", "result": "decreased K0.5 values"},
      {"measurement": "flavoprotein oxidation in comparison with AID-TAT peptide", "setting": "[2]", "result": "statistically significant reduction in flavoprotein oxidation in comparison with AID-TAT peptide"},
      {"measurement": "BayK(−) induced increase in flavoprotein oxidation", "setting": "cTnI.2 wt myocytes", "result": "effective"}
    ]},
    {"substance": "QQEEEDLKGYLDWITQAE (Varian P14) [Variant P14]", "values": [
      {"measurement": "binding affinity (K0.5) for the target β2 subunit versus the original AID peptide", "setting": "[1]", "result": "greater binding affinity (lower K0.5)"},
      {"measurement": "K0.5 values compared to AID peptide", "setting": "Cavβ2 subunit", "result": "decreased K0.5 values"},
      {"measurement": "flavoprotein oxidation in comparison with AID-TAT peptide", "setting": "[2]", "result": "statistically significant reduction in flavoprotein oxidation in comparison with AID-TAT peptide"},
      {"measurement": "BayK(−) induced increase in flavoprotein oxidation", "setting": "cTnI.2 wt myocytes", "result": "effective"}
    ]},
    {"substance": "QQREEDLKGYLDWITQAE (Variant P16)", "values": [
      {"measurement": "binding affinity (K0.5) for the target β2 subunit versus the original AID peptide", "setting": "[1]", "result": "greater binding affinity (lower K0.5)"},
      {"measurement": "K0.5 values compared to AID peptide", "setting": "Cavβ2 subunit", "result": "decreased K0.5 values"}
    ]}
  ]
}
